Results on eleven compounds are retold here after BindingDB's records for doi:10.1021/acs.jmedchem.2c02005 (The Hong Kong Polytechnic University, 2023).

A short description of data set [1]: Negative allosteric modulator activity at P-gp in human LCC6MDR cells overexpressing P-gp assessed as reversal of P-gp mediated paclitaxel resistance activity incubated for 5 days by MTS assay. Background: Tetrazolium assays rely on reduction of a dye to a coloured formazan, in cell work by metabolically active cells.
A short description of data set [2]: Negative allosteric modulator activity at P-gp in human LCC6MDR cells overexpressing P-gp assessed as reversal of P-gp mediated PTX resistance by measuring paclitaxel IC50 incubated for 5 days by MTS assay.
Data set [3] is described as follows: Negative allosteric modulator activity at human wildtype P-gp expressed in HEK293FT cells assessed as reversal of P-gp mediated PTX resistance by measuring paclitaxel IC50 incubated for 5 days by MTS assay (Rvb = 540.5 +/- 20.3 nM).
The nature of data set [4]: Negative allosteric modulator activity at human P-gp I1115K mutant expressed in HEK293FT cells assessed as reversal of P-gp mediated PTX resistance by measuring paclitaxel IC50 incubated for 5 days by MTS assay (Rvb = 6.2 +/- 2 nM).
Data set [5] in a line: Negative allosteric modulator activity at human P-gp G1114A mutant expressed in HEK293FT cells assessed as reversal of P-gp mediated PTX resistance by measuring paclitaxel IC50 incubated for 5 days by MTS assay (Rvb = 5.6 +/- 1.1 nM).
The nature of data set [6]: Negative allosteric modulator activity at human P-gp I1115A mutant expressed in HEK293FT cells assessed as reversal of P-gp mediated PTX resistance by measuring paclitaxel IC50 incubated for 5 days by MTS assay (Rvb = 7.5 +/- 2.4 nM).
Data set [7] is described as follows: Negative allosteric modulator activity at human P-gp H1195A mutant expressed in HEK293FT cells assessed as reversal of P-gp mediated PTX resistance by measuring paclitaxel IC50 incubated for 5 days by MTS assay (Rvb = 3.4 +/- 1.5 nM).
Data set [8] in a line: Negative allosteric modulator activity at human P-gp T1226A mutant expressed in HEK293FT cells assessed as reversal of P-gp mediated PTX resistance by measuring paclitaxel IC50 incubated for 5 days by MTS assay (Rvb = 6.3 +/- 2.1 nM).
Data set [9] is described as follows: Negative allosteric modulator activity at human P-gp G1114V mutant expressed in HEK293FT cells assessed as reversal of P-gp mediated PTX resistance by measuring paclitaxel IC50 incubated for 5 days by MTS assay (Rvb = 3.4 +/- 0.5 nM).
The nature of data set [10]: Negative allosteric modulator activity at human P-gp G1114L mutant expressed in HEK293FT cells assessed as reversal of P-gp mediated PTX resistance by measuring paclitaxel IC50 incubated for 5 days by MTS assay (Rvb = 4.5 +/- 1.1 nM).
A short description of data set [11]: Negative allosteric modulator activity at human P-gp I1115W mutant expressed in HEK293FT cells assessed as reversal of P-gp mediated PTX resistance by measuring paclitaxel IC50 incubated for 5 days by MTS assay (Rvb = 7.8 +/- 0.9 nM).
Data set [12] can be described thus: Negative allosteric modulator activity at human P-gp I1115Y mutant expressed in HEK293FT cells assessed as reversal of P-gp mediated PTX resistance by measuring paclitaxel IC50 incubated for 5 days by MTS assay (Rvb = 6.9 +/- 1.2 nM).
Data set [13] in a line: Negative allosteric modulator activity at human P-gp I1115E mutant expressed in HEK293FT cells assessed as reversal of P-gp mediated PTX resistance by measuring paclitaxel IC50 incubated for 5 days by MTS assay (Rvb = 7.4 +/- 0.8 nM).
Data set [14] is described as follows: Negative allosteric modulator activity at human P-gp I1115M mutant expressed in HEK293FT cells assessed as reversal of P-gp mediated PTX resistance by measuring paclitaxel IC50 incubated for 5 days by MTS assay (Rvb = 9.8 +/- 0.9 nM).
Data set [15] is described as follows: Negative allosteric modulator activity at human P-gp L1113A mutant expressed in HEK293FT cells assessed as reversal of P-gp mediated PTX resistance by measuring paclitaxel IC50 incubated for 5 days by MTS assay (Rvb = 590 +/- 14.2 nM).
Data set [16] is described as follows: Negative allosteric modulator activity at human P-gp G1114I mutant expressed in HEK293FT cells assessed as reversal of P-gp mediated PTX resistance by measuring paclitaxel IC50 incubated for 5 days by MTS assay (Rvb = 10.2 +/- 2.4 nM).
Data set [17] in a line: Negative allosteric modulator activity at human P-gp I1115N mutant expressed in HEK293FT cells assessed as reversal of P-gp mediated PTX resistance by measuring paclitaxel IC50 incubated for 5 days by MTS assay (Rvb = 10.2 +/- 1.6 nM).
A short description of data set [18]: Negative allosteric modulator activity at human P-gp I1115L mutant expressed in HEK293FT cells assessed as reversal of P-gp mediated PTX resistance by measuring paclitaxel IC50 incubated for 5 days by MTS assay (Rvb = 472 +/- 15.4 nM).
Data set [19] can be described thus: Negative allosteric modulator activity at human P-gp Q1193A mutant expressed in HEK293FT cells assessed as reversal of P-gp mediated PTX resistance by measuring paclitaxel IC50 incubated for 5 days by MTS assay (Rvb = 483.4 +/- 17.2 nM).
Data set [20] can be described thus: Negative allosteric modulator activity at human P-gp C1227A mutant expressed in HEK293FT cells assessed as reversal of P-gp mediated PTX resistance by measuring paclitaxel IC50 incubated for 5 days by MTS assay (Rvb = 352.1 +/- 30.6 nM).
Data set [21] is described as follows: Negative allosteric modulator activity at human P-gp Q1193F mutant expressed in HEK293FT cells assessed as reversal of P-gp mediated PTX resistance by measuring paclitaxel IC50 incubated for 5 days by MTS assay (Rvb = 453.6 +/- 14.8 nM).
Data set [22] is described as follows: Negative allosteric modulator activity at human P-gp Q1193E mutant expressed in HEK293FT cells assessed as reversal of P-gp mediated PTX resistance by measuring paclitaxel IC50 incubated for 5 days by MTS assay (Rvb = 395.8 +/- 13.4 nM).
A short description of data set [23]: Negative allosteric modulator activity at human P-gp Q1193K mutant expressed in HEK293FT cells assessed as reversal of P-gp mediated PTX resistance by measuring paclitaxel IC50 incubated for 5 days by MTS assay (Rvb = 466.2 +/- 72.3 nM).
Data set [24] is described as follows: Negative allosteric modulator activity at human P-gp Q1193C mutant expressed in HEK293FT cells assessed as reversal of P-gp mediated PTX resistance by measuring paclitaxel IC50 incubated for 5 days by MTS assay (Rvb = 359.4 +/- 22.3 nM).
Data set [25] is described as follows: Negative allosteric modulator activity at human P-gp Q1193T mutant expressed in HEK293FT cells assessed as reversal of P-gp mediated PTX resistance by measuring paclitaxel IC50 incubated for 5 days by MTS assay (Rvb = 523.6 +/- 33.7 nM).
A short description of data set [26]: Negative allosteric modulator activity at human P-gp Q1193N mutant expressed in HEK293FT cells assessed as reversal of P-gp mediated PTX resistance by measuring paclitaxel IC50 incubated for 5 days by MTS assay (Rvb = 560.2 +/- 43.9 nM).
Data set [27] can be described thus: Negative allosteric modulator activity at human P-gp I1115F mutant expressed in HEK293FT cells assessed as reversal of P-gp mediated PTX resistance by measuring paclitaxel IC50 incubated for 5 days by MTS assay (Rvb = 663.1 +/- 10.2 nM).
A short description of data set [28]: Negative allosteric modulator activity at human P-gp T1226W mutant expressed in HEK293FT cells assessed as reversal of P-gp mediated PTX resistance by measuring paclitaxel IC50 incubated for 5 days by MTS assay (Rvb = 363.5 +/- 24.9 nM).
Data set [29] is described as follows: Negative allosteric modulator activity at human P-gp T1226Y mutant expressed in HEK293FT cells assessed as reversal of P-gp mediated PTX resistance by measuring paclitaxel IC50 incubated for 5 days by MTS assay (Rvb = 449.3 +/- 31.2 nM).
Data set [30] in a line: Negative allosteric modulator activity at human P-gp T1226F mutant expressed in HEK293FT cells assessed as reversal of P-gp mediated PTX resistance by measuring paclitaxel IC50 incubated for 5 days by MTS assay (Rvb = 409.9 +/- 19.7 nM).

Regarding `[N-]=[N+]=NCc1cc(CNCCOCCOc2ccc(-c3cc(=O)c4ccccc4o3)cc2)cc(N=[N+]=[N-])c1`, the EC50 in data set [1] is 110 nM. Besides, the IC50 in [2] was found to be 2.1 nM.

For `O=c1cc(-c2ccc(OCCOCCNCc3ccc(C4(C(F)(F)F)N=N4)cc3)cc2)oc2ccccc12`, the EC50 in data set [1] was 107 nM. Further, the IC50 in data set [2] stood at 2.3 nM.

Regarding `C#CCN(CCOCCOc1ccc(-c2cc(=O)c3ccccc3o2)cc1)Cc1ccc(C2(C(F)(F)F)N=N2)cc1`, the EC50 in data set [1] amounted to 602 nM. Moreover, in data set [2], the IC50 amounted to 57 nM.

On to `C#CCNc1cc(C)cc2c(=O)cc(-c3ccc(OCCOCCNCc4ccc(C5(C(F)(F)F)N=N5)cc4)cc3)oc12`, for which, in [1], the EC50 came out at 733 nM. Besides, the concentration for half-maximal inhibition (IC50) in data set [2] worked out at 280 nM.

For the compound `O=c1cc(-c2ccc(OCCOCCOCCOCCOc3ccc(-c4cc(=O)c5c(O)cc(O)cc5o4)cc3)cc2)oc2cc(O)cc(O)c12`, in data set [1], the EC50 was found to be 900 nM.

For the compound `O=c1cc(-c2ccc(OCCOCCN(Cc3ccc(C4(C(F)(F)F)N=N4)cc3)Cc3ccc(C4(C(F)(F)F)N=N4)cc3)cc2)oc2ccccc12`, the concentration giving a half-maximal response (EC50) in data set [1] worked out at 3010 nM. In addition, in data set [2], the IC50 was determined as 158 nM.

Take `O=c1cc(-c2ccc(OCCOCCNCc3ccccc3)cc2)oc2ccccc12`: the half-inhibitory concentration (IC50) in data set [2] is 3.8 nM; in data set [3], 7.4 nM; in data set [4] it was 7.8 nM; in data set [5] it was 4.3 nM; in data set [6], 6.3 nM; in [7] it was 4.7 nM. The IC50 was determined as 4.6 nM in [8]; 3.5 nM in data set [9]; 4.8 nM in data set [10]; 8.3 nM in data set [11]; 8.2 nM in [12]; 7.6 nM in [13]. The 50% inhibitory concentration (IC50) in data set [14] was 7.9 nM; in data set [15], 4.2 nM; in data set [16] it was 8.6 nM; in data set [17], 9.9 nM; in data set [18], 10 nM; in data set [19], 112 nM. The IC50 amounted to 5.2 nM in data set [20]; 81 nM in data set [21]; 93 nM in [22]; 48 nM in [23]; 29 nM in data set [24]; 61 nM in [25]. The 50% inhibitory concentration (IC50) in data set [26] came out at 11 nM; in data set [27], 43 nM; in data set [28] it was 6.4 nM; in data set [29] it was 7.2 nM; in data set [30], 6.9 nM.

On to `O=c1cc(-c2ccc(OCCOCCOCCOCCOc3ccc(-c4cc(=O)c5ccccc5o4)cc3)cc2)oc2ccccc12`, for which the EC50 in [1] amounted to 360 nM.

`O=c1cc(-c2ccc(O)cc2)oc2cc(O)cc(O)c12` [Naringenin, 18]: the EC50 in data set [1] was > 10000 nM.

Regarding `C#CCNc1cc(C)cc2c(=O)cc(-c3ccc(OCCOCCN(Cc4ccc(C5(C(F)(F)F)N=N5)cc4)Cc4ccc(C5(C(F)(F)F)N=N5)cc4)cc3)oc12`, the IC50 in data set [2] was determined as 312 nM.

As for `C#CCOc1cccc2oc(-c3ccc(OCCOCCNCc4ccc(C5(C(F)(F)F)N=N5)cc4)cc3)cc(=O)c12`, the 50% effective concentration (EC50) in data set [1] amounted to 66 nM. Besides, the IC50 in data set [2] is 1.4 nM.

A word on the EC50: it is the concentration needed to bring the measured effect to its halfway point. As a reminder, the IC50 is the midpoint of a concentration-inhibition curve.
